Experimental data published in patent US10077289B2, “Cyclosporins modified on the MeBmt sidechain by heterocyclic rings” (priority 2015, dated 2018).
In brackets after ≈: the same amount, converted by molar mass. Read-outs that look alike come from different tables or passages of the source.

Assays:
[1] = molecular target: Human recombinant cyclophilin A (Cyp A) (Homo sapiens (Human), UniProt P62937); experiment: Protease-free PPIase assay
Protocol: Protease-Free PPIase Assay
The protease-free PPIase assay measures the rate of cis to trans conversion of a peptide substrate catalyzed by the enzyme cyclophilin A. Addition of a cyclophilin A inhibitor (e.g., a test compound) slows the catalyzed rate and a Ki value is obtained.
35 mM HEPES pH 7.8, filtered through a 0.2 μm filter. 50 μM DTT was added prior to use each day and then the buffer was stored on ice.
Human recombinant cyclophilin A (Cyp A) (Sigma C3805) enzyme was diluted to 1 μM with enzyme dilution buffer (20 mM HEPES pH 7.8, 40% glycerol, 50 μM DTT and 1 μM BSA) and stored at −20° C.
Succinimide-Ala-Ala-Pro-Phe-p-nitroanilide (SUC-AAPF-pNA) (from Bachem AG, L-1400), 20 mg/ml prepared in 0.5 M LiCl in trifluoroethanol.
The temperature is monitored by the use of a temperature probe. To prevent UV degradation of test compounds, the light below 290 nm was blocked using a glass slide in the light path. 1.5 ml of the assay buffer was put into a 3 ml quartz cuvette and cooled to 10.0±0.1° C. while stirring (vigorous but not so fast as to produce cavitation). The inhibitor was diluted in 100% DMSO, and then added to the assay to a maximum final concentration of 0.5% DMSO in the assay. A blank spectrum was obtained, then 3 μL of enzyme was added (2 nM final concentration) and then 3 μL substrate (60 μM final concentration) added. The absorbance was measured at 330 nm for 300 s or 500 s for blank runs (NOTE: the substrate must be added in one quick injection and the measurements started immediately to minimize mixing errors).
A first order rate equation was fitted to the absorbance data, for each concentration of inhibitor, to obtain the rate constant (the first 10 to 15 seconds were excluded as mixing causes errors in this portion of curve). The catalytic rate was calculated from the enzymatic rate constant minus the background rate constant. An exponential curve was generated using the catalytic rate constants versus the inhibitor concentration to obtain the Ki value for the inhibitor. The Ki value is indicative of the binding affinity between the test compound and cyclophilin A.

[2] = molecular target: calcineurin/cyclophilin A (Homo sapiens (Human), UniProt P62937+P63098+Q08209); experiment: Calcineurin Phosphatase (CaN) Assay (+CypA); assay type: biochemical; conditions: in the presence of Cyp A, 1:1 complex with inhibitor; read-out: Calcineurin Phosphatase (CaN) Assay (+CypA) IC50
Excerpt: Calcineurin Phosphatase (CaN) Assay
The calcineurin phosphatase assay is a means for estimating the immunosuppressive potential of a test compound. Calcineurin is a serine-threonine protein phosphatase that on activation dephosphorylates members of the nuclear factor of activated T cells (NFAT), which are important in T lymphocyte activation.
To investigate the immunosuppressive potential of exemplary compounds of Formula I, which are cyclosporin analogs, their ability to inhibit calcineurin activity was measured in the presence and absence of Cyp A.
The CaN assay kit used is based on a colorimetric assay for measuring calcineurin phosphatase activity, and it is commercially available (Enzo Life Sciences and Calbiochem). Calmodulin is also required for calcineurin activity and RII phosphopeptide is used as an efficient peptide substrate for calcineurin. […] The detection of free phosphate released is based on the classic Malachite green assay.
Enzo Life Sciences CaN Assay Kit: BML-AK804
Malachite Green: BIOMOL Green™ reagent
Calmodulin (Human, recombinant): was thawed on ice, diluted 1:50 with 2× assay buffer, and then stored on ice.
Calcineurin: was thawed quickly, stored on ice immediately, diluted 1:12.5 with 1× assay buffer, and then stored on ice.
R-II Substrate: 915 μL ultrapure water (UPW) was added to the 1.5 mg vial substrate to give a final concentration of 0.75 mM.
Inhibitors: 2.5 mM inhibitor in 100% DMSO.
Cyp A: recombinant human CypA (Sigma C3805), 1 mg/ml; Recombinant 6-His tagged CypA prepared by the University of Edinburgh was also used.
Inhibitor dilutions: inhibitor compounds were diluted in UPW in polypropylene low-binding 96 well plates at 5× the final assay concentration.
Assay Setup: using the half area 96 well plates supplied with the kit, 10 μl UPW was added to duplicate wells to provide the non-inhibited control. 10 μl of the inhibitor or the inhibitor/Cyp A complex was added to the appropriate sample wells. 25 μl of the 2× assay buffer with CaM was added to all wells, then 5 μl of CaN was added to all wells (40 U per well final concentration) except duplicate ‘no calcineurin blank’ wells to which 5 μL 1× assay buffer was added. The assay plate was placed in an oven at 30° C. for 15 minutes to equilibrate to the reaction temperature. The reaction was started by the addition of 10 μl RII-peptide (0.15 mM final concentration). The reaction was allowed to proceed at 30° C. for a time period in which the reaction is linear for about 60 minutes. The reaction was then terminated by adding 100 μl of the Malachite Green reagent. The color was allowed to develop for 15-30 minutes at room temperature before the absorbance at 620 nm was measured using a plate reader (Molecular Devices—SpectraMax M5). The data were analyzed by subtracting ‘no Calcineurin blank’ from all the absorbance readings and plotting the background corrected absorbances against Log10 inhibitor concentration. A sigmoidal-dose response curve was fitted to the data using GraphPad Prism Software.
It exerts its immunosuppressive activity by binding to cyclophilin A to form a complex, which then binds to calcineurin and thereby inhibits calcineurin activity.

[3] = Water Solubility Assay (measured in pH 7.8 buffer); assay type: physicochemical; conditions: kinetic from dmso stock, 25 °C
Protocol: Water Solubility Assay (Measured in pH 7.8 Buffer)
The aqueous solubility of a compound of Formula I in buffer (pH 7.8) was measured by recording the onset of precipitation of the compound as a function of increasing concentration. The onset of precipitation, if it occurred, was detected by an increase in absorbance at 650 nm.
Assay Buffer: 35 mM HEPES pH 7.8
Stock solutions of Control and Test Compounds: 10 mM in 100% DMSO.
10 mM stock solutions of control and test compounds were prepared in 100% DMSO.
Assay buffer (247.5 μl) was placed into flat bottomed transparent 96-well plate. For blank samples DMSO (2.5 μl) was added. For test and control samples 2.5 μl of the appropriate DMSO dilution stocks were added to the appropriate well. All test and control compounds were performed in triplicate.
The plates were sealed with adhesive plate seal and shaken at 250 rpm at 25° C. for 18 h on a plate shaker. After incubation the plate seals were taken off and any bubbles observed in wells removed. The plates were read on a SpectraMaxM5 with a 5 s pre-shake at 650 nm. Data files were transferred to the appropriate worksheet and the solubility range of the compounds was calculated from the data. The values shown in the Tables indicate the concentration in μM (micromolar) at which the compound remains in solution.

Compound | Ki ([1]; read-out: Protease-free PPIase Assay Ki, human recombinant Cyp A, 10 °C) | IC50 [2] | solubility at 18 h ([3]; 35 mM HEPES buffer pH 7.8, aqueous buffer, 35 mM HEPES pH 7.8, 1% DMSO, 18 h, read-out: Water Solubility Assay, concentration at which the compound remains in solution) | Ki [1] | solubility at 18 h ([3]; pH 7.8, aqueous buffer)
CC[C@H]1NC(=O)[C@@H]([C@H](O)[C@H](C)CCCc2ccc(OC)cn2)N(C)C(=O)[C@@H](C(C)C)N(C)C(=O)[C@@H](CC(C)C)N(C)C(=O)[C@@H](CC(C)C)N(C)C(=O)[C@H](C)NC(=O)[C@@H](C)NC(=O)[C@@H](CC(C)C)N(C)C(=O)[C@@H](C(C)C)NC(=O)[C@H](CC(C)C)N(C)C(=O)[C@@H](C)N(C)C1=O [Compound 16, [(2S,3R,4R)-3-Hydroxy-4-methyl-2-(methylamino)-7-(5-methoxy-pyridin-2-yl)-heptanoic acid]^1 [(R)-methyl-Sar]^3 cyclosporin A] | 0.72 nM | > 10 µM | 25 to 50 µM (≈ 32.8 to 65.6 µg/mL) |  | 
CC[C@H]1NC(=O)[C@@H]([C@H](O)[C@H](C)CCCc2ccnc(C)c2)N(C)C(=O)[C@@H](C(C)C)N(C)C(=O)[C@@H](CC(C)C)N(C)C(=O)[C@@H](CC(C)C)N(C)C(=O)[C@H](C)NC(=O)[C@@H](C)NC(=O)[C@@H](CC(C)C)N(C)C(=O)[C@@H](C(C)C)NC(=O)[C@H](CC(C)C)N(C)C(=O)[C@@H](C)N(C)C1=O [Compound 17, [(2S,3R,4R)-3-Hydroxy-4-methyl-2-(methylamino)-7-(2-methyl-pyridin-4-yl)-heptanoic acid]^1 [(R)-methyl-Sar]^3 cyclosporin A] |  | 9.25 µM |  | 3.9 nM | 25 to 50 µM (≈ 32.4 to 64.8 µg/mL)
CC[C@H]1NC(=O)[C@@H]([C@H](O)[C@H](C)CCCc2cnccn2)N(C)C(=O)[C@@H](C(C)C)N(C)C(=O)[C@@H](CC(C)C)N(C)C(=O)[C@@H](CC(C)C)N(C)C(=O)[C@H](C)NC(=O)[C@@H](C)NC(=O)[C@@H](CC(C)C)N(C)C(=O)[C@@H](C(C)C)NC(=O)[C@H](CC(C)C)N(C)C(=O)[C@@H](C)N(C)C1=O [Compound 18, [(2S,3R,4R)-3-Hydroxy-4-methyl-2-(methylamino)-7-(pyrazin-2-yl)-heptanoic acid]^1 [(R)-methyl-Sar]^3 cyclosporin A] |  | 5.8 µM |  | 2.2 nM | 50 to 75 µM (≈ 64.1 to 96.2 µg/mL)
CC[C@H]1NC(=O)[C@@H]([C@H](O)[C@H](C)CCCc2cn(C)cn2)N(C)C(=O)[C@@H](C(C)C)N(C)C(=O)[C@@H](CC(C)C)N(C)C(=O)[C@@H](CC(C)C)N(C)C(=O)[C@H](C)NC(=O)[C@@H](C)NC(=O)[C@@H](CC(C)C)N(C)C(=O)[C@@H](C(C)C)NC(=O)[C@H](CC(C)C)N(C)C(=O)[C@@H](C)N(C)C1=O [Compound 20, [(2S,3R,4R)-3-Hydroxy-7-(1-methyl-1H-imidazol-4-yl)-4-methyl-2-(methylamino)heptanoic acid]^1 [(R)-methyl-Sar]^3 cyclosporin A] |  | > 10 µM |  | 5.7 nM | > 100 µM
CC[C@H]1NC(=O)[C@@H]([C@H](O)[C@H](C)CCCc2cccnn2)N(C)C(=O)[C@@H](C(C)C)N(C)C(=O)[C@@H](CC(C)C)N(C)C(=O)[C@@H](CC(C)C)N(C)C(=O)[C@H](C)NC(=O)[C@@H](C)NC(=O)[C@@H](CC(C)C)N(C)C(=O)[C@@H](C(C)C)NC(=O)[C@H](CC(C)C)N(C)C(=O)[C@@H](C)N(C)C1=O [Compound 21, [(2S,3R,4R)-3-Hydroxy-4-methyl-2-(methylamino)-7-(pyridazin-3-yl)-heptanoic acid]^1 [(R)-methyl-Sar]^3 cyclosporin A] |  | > 10 µM |  | 3.2 nM | > 100 µM
CC[C@H]1NC(=O)[C@@H]([C@H](O)[C@H](C)CCCc2ncccn2)N(C)C(=O)[C@@H](C(C)C)N(C)C(=O)[C@@H](CC(C)C)N(C)C(=O)[C@@H](CC(C)C)N(C)C(=O)[C@H](C)NC(=O)[C@@H](C)NC(=O)[C@@H](CC(C)C)N(C)C(=O)[C@@H](C(C)C)NC(=O)[C@H](CC(C)C)N(C)C(=O)[C@@H](C)N(C)C1=O [Compound 22, [(2S,3R,4R)-3-Hydroxy-4-methyl-2-(methylamino)-7-(pyrimidin-2-yl)-heptanoic acid]^1 [(R)-methyl-Sar]^3 cyclosporin A] |  | 1.16 µM |  | 3.2 nM | > 100 µM
CC[C@H]1NC(=O)[C@@H]([C@H](O)[C@H](C)CCCc2ccnn2C)N(C)C(=O)[C@@H](C(C)C)N(C)C(=O)[C@@H](CC(C)C)N(C)C(=O)[C@@H](CC(C)C)N(C)C(=O)[C@H](C)NC(=O)[C@@H](C)NC(=O)[C@@H](CC(C)C)N(C)C(=O)[C@@H](C(C)C)NC(=O)[C@H](CC(C)C)N(C)C(=O)[C@@H](C)N(C)C1=O [Compound 23, [(2S,3R,4R)-3-Hydroxy-4-methyl-2-(methylamino)-7-(2-methylpyrazol-3-yl)-heptanoic acid]^1 [(R)-methyl-Sar]^3 cyclosporin A] |  | 3.34 µM |  | 2.1 nM | > 100 µM
CC[C@H]1NC(=O)[C@@H]([C@H](O)[C@H](C)CCCc2ccn(C)n2)N(C)C(=O)[C@@H](C(C)C)N(C)C(=O)[C@@H](CC(C)C)N(C)C(=O)[C@@H](CC(C)C)N(C)C(=O)[C@H](C)NC(=O)[C@@H](C)NC(=O)[C@@H](CC(C)C)N(C)C(=O)[C@@H](C(C)C)NC(=O)[C@H](CC(C)C)N(C)C(=O)[C@@H](C)N(C)C1=O [Compound 25, [(2S,3R,4R)-3-Hydroxy-4-methyl-2-(methylamino)-7-(1-methylpyrazol-3-yl)heptanoic acid]^1 [(R)-methyl-Sar]^3 cyclosporin A] |  | 1.46 µM |  | 3.8 nM | > 100 µM
